US20080004290A1, “Anti-Cancer Agents” (THE UNIVERSITY OF QUEENSLAND, priority 2003, published 2008)
Where two headings read alike, the source gives them in different places.

Columns and labels:
MM96L melanoma cells = experiment: Cell survival assay (clonogenic survival, SRB); assay type: cell-based, human; conditions: for Selectivity: IC50 (NFF)/IC50 (MM96L); for SI (Selectivity Index = IC50 (NFF)/IC50 (MM96L)): NFF vs MM96L
Procedure: (§1) The cytotoxicities of the compounds of the invention were determined by clonogenic survival of human cancer cells (MM96L, melanoma) and human normal cells (NFF, neonatal foreskin fibroblasts). Cells were incubated with the compounds at various concentrations of compound (0.01-10 μg/mL) for 24 hours, washed, and then grown for a further four days in the absence of hydroxamic acid before determining cell survival by cell count. The final readout involved staining with sulforhodamine B (SRB), a cost-effective method amenable to automation and high throughput analysis. At the technical level, “cell sensitivity” is often inferred from short term (1-2 day) observations such as apoptosis, which may not be a satisfactory model of clonogenic survival.
(§2) Cell Lines and Culture Medium. All cell lines used in this study have been described previously (Parsons et al., 1986; Todaro et al., 1980; Glenn et al., 2004). All cell lines were cultured in 10% heat-inactivated foetal calf serum (CSL, Australia) in RPMI 1640 medium supplemented with 100 U/mL penicillin, 100 μg/mL streptomycin, and 3 mM HEPES at 5% CO2, 99% humidity at 37° C. Primary human fibroblasts were obtained from neonatal foreskins and cultured in the above medium. Routine mycoplasma tests were performed using Hoechst stain^i and were always negative.
(§3) Cell Survival Assay. Cells were plated into 96-well microtitre plates at 5×10^3 cells/well, and allowed to adhere overnight. Test compounds were added to culture medium at the indicated concentrations, and plates incubated in the above conditions for 24 hours. Following this incubation period, compounds and media were removed, and replaced with fresh culture medium. Cells were then grown for a further 72 hours before assay using sulforhodamine B (SRB; Sigma, St. Louis, Mo.) as previously described. Briefly, the culture medium was removed from the 96-well microtitre plates and the plates washed twice with phosphate buffered saline (PBS), before the cells were fixed with methylated spirits for 15 minutes. The plates were then rinsed with tap water and the fixed cells stained with 50 μL/well of SRB solution (0.4% sulforhodamine B (w/v) in 1% (v/v) acetic acid) over a period of 1 hour. The SRB solution was then removed from the wells and the plates rapidly washed two times with 1% (v/v) acetic acid. Protein bound dye was then solubilised with the addition of 100 μL of 10 mM unbuffered Tris, and incubated for 15 min at 25° C. Plates were then read at 564 nm on a VERSA max tunable microplate reader (Molecular Devices, Sunnyvale, Calif.).

[1] = system: NFF, neonatal foreskin fibroblasts; experiment: Cell survival assay (clonogenic survival, SRB), normal cells; assay type: cell-based, human; conditions: SRB
Procedure: as §1, §2, §3

[2] = Homo sapiens, MM96L, 24 h, Table 7, 24 hours with compound, further growth, SRB, read-out: IC50 (μM) MM96L
[3] = Homo sapiens, Fibroblast, 24 h, Table 7, 24 hours with compound, further growth, read-out: IC50 (μM) NFF
[4] = Homo sapiens, MM96L, most preferred compounds, exemplary examples, read-out: potency of IC50 against the MM96 melanoma cells
[5] = Table 8, 24 hours with compound, further growth, SRB, read-out: IC50 (μM) MM96
[6] = Table 8, 24 hours with compound, further growth, read-out: IC50 (μM) NFF
[7] = MM96L melanoma, 24 h with compound, further 72 h growth, SRB, read-out: IC50 (uM) MM96L
[8] = NFF normal fibroblasts, 24 h with compound, further 72 h growth, read-out: IC50 (uM) NFF
[9] = Homo sapiens, MM96L, MM96L melanoma, 24 h with compound, further 72 h growth, SRB, read-out: IC50 (uM) MM96L
[10] = Homo sapiens, Fibroblast, NFF normal fibroblasts, 24 h with compound, further 72 h growth, read-out: IC50 (uM) NFF

SMILES	IC50 (MM96L melanoma cells; [5])	Selectivity (MM96L melanoma cells; Table 8)	IC50 [1, 6]	also measured
O=C(/C=C/c1ccccc1)N[C@@H](CSCCCC(=O)NO)C(=O)Nc1ccncc1 [Example 97]				IC50 (MM96L melanoma cells; [2]): 0.5 ± 0.2 µM; Selectivity (MM96L melanoma cells; Table 7): 3.3; IC50 [1, 3]: 1.6 ± 0.3 µM
O=C(/C=C/c1ccccc1)N[C@@H](CSCCCC(=O)NO)C(=O)Nc1cccnc1 [Example 98]				IC50 (MM96L melanoma cells; [2]): 1.2 ± 0.3 µM; Selectivity (MM96L melanoma cells; Table 7): 5.2; IC50 [1, 3]: 6.4 ± 0.8 µM
Cc1ccnc(NC(=O)[C@H](CSCCCC(=O)NO)NC(=O)/C=C/c2ccccc2)c1 [Example 99]				IC50 (MM96L melanoma cells; [2]): 0.6 ± 0.2 µM; Selectivity (MM96L melanoma cells; Table 7): 6.5; IC50 [1, 3]: 4 ± 0.6 µM
O=C(/C=C/c1ccccc1)N[C@@H](CSCCCC(=O)NO)C(=O)NCc1ccncc1 [Example 100]				IC50 (MM96L melanoma cells; [2]): 0.34 ± 0.02 µM; IC50 (MM96L melanoma cells; [4]): ≤ 0.5 µM; Selectivity (MM96L melanoma cells; Table 7): 4.8; IC50 [1, 3]: 1.6 ± 0.2 µM
O=C(/C=C/c1ccccc1)N[C@@H](CSCCCC(=O)NO)C(=O)NCc1cccnc1 [Example 101]				IC50 (MM96L melanoma cells; [2]): 0.9 ± 0.2 µM; Selectivity (MM96L melanoma cells; Table 7): 15.1; IC50 [1, 3]: 13.2 ± 0.7 µM
O=C(/C=C/c1ccccc1)N[C@@H](CSCCCC(=O)NO)C(=O)NCc1ccccn1 [Example 102]				IC50 (MM96L melanoma cells; [2]): 0.8 ± 0.3 µM; Selectivity (MM96L melanoma cells; Table 7): 5.3; IC50 [1, 3]: 4.2 ± 0.4 µM
CC(C)NC(=O)c1ccc(CNC(=O)[C@H](CSCCCC(=O)NO)NC(=O)c2ccc(N(C)C)cc2)cc1 [Example 103]	1.38 µM	7.30	10.1 µM	
CC(C)CNC(=O)c1ccc(CNC(=O)[C@H](CSCCCC(=O)NO)NC(=O)c2ccc(N(C)C)cc2)cc1 [Example 104]	1.62 µM	5.0	8.08 µM	
CN(C)c1ccc(C(=O)N[C@@H](CSCCCC(=O)NO)C(=O)NCc2ccc(C(=O)NCCCCCCO)cc2)cc1 [Example 105]	4.26 µM	4.0	17 µM	
CN(C)c1ccc(C(=O)N[C@@H](CSCCCC(=O)NO)C(=O)NCc2ccc(C(=O)NCc3ccccc3)cc2)cc1 [Example 106]	1.18 µM	10.0	11.8 µM	
CN(C)c1ccc(C(=O)N[C@@H](CSCCCC(=O)NO)C(=O)NCc2ccc(C(=O)Nc3ccncc3)cc2)cc1 [Example 107]	2.96 µM	5.7	16.9 µM	
CN(C)c1ccc(C(=O)N[C@@H](CSCCCC(=O)NO)C(=O)NCc2ccc(C(=O)NCc3ccccn3)cc2)cc1 [Example 108]	2.28 µM	7.4	16.9 µM	
CN(C)c1ccc(NC(=O)c2ccc(CNC(=O)[C@H](CSCCCC(=O)NO)NC(=O)c3ccc(N(C)C)cc3)cc2)cc1 [Example 109]	0.54 µM	4.5	2.42 µM	
CN(C)c1ccc(C(=O)N[C@@H](CSCCCC(=O)NO)C(=O)NCc2ccc(C(=O)NCCc3ccc(O)cc3)cc2)cc1 [Example 110]	2.98 µM	5.4	16.1 µM	
CN(C)c1ccc(C(=O)N[C@@H](CSCCCC(=O)NO)C(=O)NCc2ccc(C(=O)Nc3ccc(-c4ccccc4)cc3)cc2)cc1 [Example 111]	0.51 µM	2.2	1.11 µM	
CN(C)c1ccc(C(=O)NC(CSCCCC(=O)NO)C(=O)NCc2ccc(C(=O)NC(c3ccccc3)C(O)c3ccccc3)cc2)cc1 (stereo not drawn) [Example 112]	2.87 µM	5.0	14.3 µM	

SMILES	IC50 (MM96L melanoma cells; [5])	Selectivity (MM96L melanoma cells; Table 8)	IC50 [1, 6]	also measured
CN(C)c1ccc(C(=O)N[C@@H](CSCCCC(=O)NO)C(=O)NCc2ccc(C(=O)NCc3nc4ccccc4[nH]3)cc2)cc1 [Example 113]	3.96 µM	4.0	15.8 µM	
CN(C)c1ccc(C(=O)N[C@@H](CSCCCC(=O)NO)C(=O)NCc2ccc(C(=O)Nc3ccc4cn[nH]c4c3)cc2)cc1 [Example 114]	1.5 µM	8.1	12.2 µM	
CN(C)c1ccc(C(=O)N[C@@H](CSCCCC(=O)NO)C(=O)NCc2ccc(C(=O)Nc3cccc4cccnc34)cc2)cc1 [Example 115]	0.56 µM	2.4	1.35 µM	
CN(C)c1ccc(C(=O)N[C@@H](CSCCCC(=O)NO)C(=O)NCc2ccc(C(=O)Nc3ccc4ncccc4c3)cc2)cc1 [Example 116]	2.23 µM	2.5	5.57 µM	
CN(C)c1ccc(C(=O)N[C@@H](CSCCCC(=O)NO)C(=O)NCc2ccc(C(=O)NC3CCCC3)cc2)cc1 [Example 117]	1.19 µM	4.4	5.27 µM	
CN(C)c1ccc(C(=O)N[C@@H](CSCCCC(=O)NO)C(=O)NCc2ccc(C(=O)Nc3cccc4c3CCCC4)cc2)cc1 [Example 118]	1.17 µM	3.2	3.78 µM	
CN(C)c1ccc(C(=O)N[C@@H](CSCCCC(=O)NO)C(=O)NCc2ccc(C(=O)Nc3ccccc3Cc3ccccc3)cc2)cc1 [Example 120]	1.02 µM	2.4	2.32 µM	
CN(C)c1ccc(C(=O)N[C@@H](CSCCCC(=O)NO)C(=O)NCc2ccc(C(=O)Nc3ccccc3)cc2)cc1 [Example 121]	1.41 µM	8.2	11.6 µM	
CN(C)c1ccc(C(=O)N[C@@H](CCCCCC(=O)NO)C(=O)NCc2ccccc2)cc1 [Example 122]				IC50 (MM96L melanoma cells; [7]): 1.6 ± 0.3 µM; SI (Selectivity Index = IC50 (NFF)/IC50 (MM96L)) (MM96L melanoma cells): 7.8; IC50 [1, 8]: 12 ± 2 µM
CN(C)c1ccc(C(=O)N[C@@H](CCCCCC(=O)NO)C(=O)NCc2ccccc2)cc1 [Example 123]				IC50 (MM96L melanoma cells; [4]): ≤ 0.5 µM; IC50 (MM96L melanoma cells; [7]): 0.16 ± 0.08 µM; SI (Selectivity Index = IC50 (NFF)/IC50 (MM96L)) (MM96L melanoma cells): 6.0; IC50 [1, 8]: 1 ± 0.1 µM
CN(C)c1ccc(C(=O)N[C@@H](CCCCCC(=O)NO)C(=O)NCc2ccccn2)cc1 [Example 127]				IC50 (MM96L melanoma cells; [9]): 3.6 ± 0.4 µM; SI (Selectivity Index = IC50 (NFF)/IC50 (MM96L)) (MM96L melanoma cells): 9.1; IC50 [1, 10]: 33 ± 5 µM
CN(C)c1ccc(C(=O)N[C@@H](CCCCCC(=O)NO)C(=O)NC2(Cc3ccccc3)CCCC2)cc1 [Example 128]				IC50 (MM96L melanoma cells; [9]): 0.9 ± 0.2 µM; SI (Selectivity Index = IC50 (NFF)/IC50 (MM96L)) (MM96L melanoma cells): 3.5; IC50 [1, 10]: 3 ± 0.3 µM
O=C(CCCCC[C@H](NC(=O)c1cc2ccccc2[nH]1)C(=O)NC1(Cc2ccccc2)CCCC1)NO [Example 129]				IC50 (MM96L melanoma cells; [9]): 0.9 ± 0.2 µM; SI (Selectivity Index = IC50 (NFF)/IC50 (MM96L)) (MM96L melanoma cells): 1.7; IC50 [1, 10]: 1.6 ± 0.2 µM
O=C(CCCCC[C@H](NC(=O)c1cc2ccccc2[nH]1)C(=O)NCc1ccccc1)NO [Example 130]				IC50 (MM96L melanoma cells; [4]): ≤ 0.5 µM; IC50 (MM96L melanoma cells; [7]): 0.252 µM; SI (Selectivity Index = IC50 (NFF)/IC50 (MM96L)) (MM96L melanoma cells): 5.0; IC50 [1, 8]: 1.26 µM
O=C(CCCCC[C@H](NC(=O)c1cc2ccccc2[nH]1)C(=O)NCc1ccccc1)NO [Example 131]				IC50 (MM96L melanoma cells; [7]): 0.08 µM; SI (Selectivity Index = IC50 (NFF)/IC50 (MM96L)) (MM96L melanoma cells): 7.1; IC50 [1, 8]: 0.572 µM
